According to patent US9717241B2, “Increased tolerance of DHT-enabled plants to auxinic herbicides resulting from moiety differences in auxinic herbicide molecular structures” (priority 2011, dated 2017):

Columns and labels:
[1] = system: SIDSP; assay: Weed control in AAD-1 cotton field plots; format: in vivo; details: 1120 g ae/ha, 3 WAA (maximum control), n = 36 plots
Experimental: (§1) An experiment to compare the efficacies of 2,4-DB and 2,4-D to control weeds in AAD-1 cotton was conducted at nine field sites located near Greenville, Miss. (3 locations); Chula, Ga.; Macon County, Ga.; Attapulgus, Ga.; Memphis, Tenn.; Newport, Ark.; and Fresno, Calif. The experimental design was four replications per site with treatment plots in randomized complete blocks. Each plot had AAD-1-cotton plants in two rows that were 20 feet in length. Weed and cotton plants were targeted at two to six inches in height for a single-application treatment. Treatments consisted of Butyrac 200 (2,4-DB) and Weedar 64 (2,4-D) applied to plots at 560, 840, and 1120 g ae/ha. Weed species were visually assessed once per week for three weeks after herbicide application for the percentage plants (0-100%, where 0 represents no activity or a control and 100% represents death of the target plant) killed or showing severe herbicide-related injury.
(§2) For nearly all targeted species and for each week of measurement, greater levels of control were obtained with increasing application rates of 2,4-DB or 2,4-D, with the greatest control from 1120 g ae/ha. Therefore, based on efficacy, 1120 g ae/ha is the preferred application rate of the three rates tested to control weeds in AAD-1 cotton. At 1120 g ae/ha, control was classified as either ≦80%, >80%, or >90% of weed plants killed or seriously injured.

[2] = system: ACCOS; assay: Weed control in AAD-1 cotton field plots; format: in vivo; details: 1120 g ae/ha, 3 WAA (maximum control), n = 36 plots
Experimental: as §1, §2

[3] = system: AMARE; assay: Weed control in AAD-1 cotton field plots; format: in vivo; details: 1120 g ae/ha, 3 WAA (maximum control), n = 36 plots
Experimental: as §1, §2

[4] = system: IPOSS; assay: Weed control in AAD-1 cotton field plots; format: in vivo; details: 1120 g ae/ha, 3 WAA (maximum control), n = 36 plots
Experimental: as §1, §2

[5] = system: SEBEX; assay: Weed control in AAD-1 cotton field plots; format: in vivo; details: 1120 g ae/ha, 3 WAA (maximum control), n = 36 plots
Experimental: as §1, §2

[6] = system: SOLNI; assay: Weed control in AAD-1 cotton field plots; format: in vivo; details: 1120 g ae/ha, 3 WAA (maximum control), n = 36 plots
Experimental: as §1, §2

[7] = system: IPOHG; assay: Weed control in AAD-1 cotton field plots; format: in vivo; details: 1120 g ae/ha, 2 WAA (maximum control), n = 36 plots
Experimental: as §1, §2

[8] = system: RCHSC; assay: Weed control in AAD-1 cotton field plots; format: in vivo; details: 1120 g ae/ha, 3 WAA (maximum control), n = 36 plots
Experimental: as §1, §2

[9] = system: CASOB; assay: Weed control in AAD-1 cotton field plots; format: in vivo; details: 1120 g ae/ha, 3 WAA (maximum control), n = 36 plots
Experimental: as §1, §2

[10] = system: ACNHI; assay: Weed control in AAD-1 cotton field plots; format: in vivo; details: 1120 g ae/ha, 2 WAA (maximum control), n = 36 plots
Experimental: as §1, §2

[11] = system: IAQTA; assay: Weed control in AAD-1 cotton field plots; format: in vivo; details: 1120 g ae/ha, 2 WAA (maximum control), n = 36 plots
Experimental: as §1, §2

[12] = system: AMAPA; assay: Weed control in AAD-1 cotton field plots; format: in vivo, Amaranthus palmeri; details: 1120 g ae/ha, 3 WAA (maximum control), n = 36 plots
Experimental: as §1, §2

[13] = system: AAD-1 cotton; assay: Crop injury over time on AAD-1 cotton, field experiment near Tifton, Ga.; format: in vivo, Cotton (Gossypium spp.); details: n = 3 plots
Experimental: (§3) By “injury” it is meant the percentage of foliage that is epinastic (has leaf droop, leaf rolling, petiole curvature) as visually assessed by one skilled in the art. The reduced injury from 2,4-DB relative to 2,4-D is observable within minutes after application of these herbicides and continues to be observable for an extended time period thereafter, such as from 2 hrs after application to 30 days after application, including 3 hours after application to 19 days after application and further including 6 hours after application to 24 hours after application.
(§4) To evaluate the tolerance of AAD-1-cotton plants to the effects of 2,4-DB and 2,4-D herbicide compounds, the herbicides Butyrac 200 (2,4-DB) and Weedar 64 (2,4-D) were applied individually by broadcast spraying over AAD-1-cotton plants in two field experiments.
Another experiment was conducted at one field location at the University of Georgia Ponder Farm, near Tifton, Ga. The experimental design was three replications with plots in randomized complete blocks. Each plot had AAD-1-cotton plants in one row that was 25 feet in length. Cotton plants were targeted at […] in height (6-leaf stage) for single-application treatment. Treatments consisted of Butyrac 200 (2,4-DB) applied at 280, 560, 1120, and 2240 g ae ha; and Weedar 64 (2,4-D) applied at 560 and 1120 g ae/ha. AAD-1-cotton plants were visually assessed for the percentage of foliage showing herbicide-related injury on days—0, 1, 2, 19, and 45 after application.

[14] = system: AAD-12 cotton; assay: Crop injury over time on AAD-12 cotton, greenhouse experiment; format: in vivo, Cotton (Gossypium spp.); details: n = 4 plants
Experimental: as §3
To evaluate the tolerance of AAD-12-cotton plants to the effects of 2,4-DB and 2,4-D herbicide compounds, the herbicides DB Straight (2,4-DB) and Weedar 64 (2,4-D) were applied individually by spraying over AAD-12-cotton plants in one greenhouse experiment. The four treatments consisted of two application rates, 1120 and 2240 g ae/ha, for each of the two herbicides. The experimental design was four replications of single AAD-12-cotton plants per treatment. The plants were grown in pots. Treatments were not randomized. Plants were at the 3- to 4-leaf stage when sprayed. The sprayed AAD-12-cotton plants were visually assessed for the percentage of foliage showing herbicide-related injury on days-0, 1, 2, 4, and 12 after application.

[15] = system: AMASS; assay: Weed control in AAD-1 cotton field plots; format: in vivo, All Amaranthus species excluding AMAPA; details: 1120 g ae/ha, 3 WAA (maximum control), n = 36 plots
Experimental: as §1, §2

[16] = system: AAD-1 cotton; assay: Crop injury on AAD-1 cotton, field experiment at four locations; format: in vivo, Cotton (Gossypium spp.); details: epinastic foliage per plot, n = 16 plots
Experimental: as §3, §4
One experiment was conducted at four field locations near Greenville, Miss.; Brinson, Ga.; Memphis, Tenn.; and Fresno, Calif. The experimental design was four replications per site with treatment plots in randomized complete blocks. Each plot had AAD-1-cotton plants in two rows that were 20 feet in length. Cotton plants were targeted at two to four inches in height for single-application treatment. Treatments consisted of Butyrac 200 (2,4-DB) applied at 560, 840, 1120, 1680, and 2240 g ae/ha; and Weedar 64 (2,4-D) applied at 840 and 1120 g ae/ha. AAD-1-cotton plants were visually assessed for the percentage of foliage showing herbicide-related injury one day after application.

O=C(O)CCCOc1ccc(Cl)cc1Cl [2,4-DB, 4-(2,4-dichlorophenoxy) butyric acid]
Percentage Control of Target Weeds [1]: 84% | Percentage Control of Target Weeds [2]: 88% | Percentage Control of Target Weeds [3]: 89% | Percentage Control of Target Weeds [4]: 99% | Percentage Control of Target Weeds [5]: 89% | Percentage Control of Target Weeds [6]: 89% | Percentage Control of Target Weeds [7]: 100% | Percentage Control of Target Weeds [8]: 99% | Percentage Control of Target Weeds [9]: 100% | Percentage Control of Target Weeds [10]: 99% | Percentage Control of Target Weeds [11]: 99% | Percentage Control of Target Weeds [12]: 81% | Mean Injury (%) ([13]; 280 g ae/ha, 0 DAA): 1.7 a % | Mean Injury (%) ([13]; 280 g ae/ha, 1 DAA): 0.7 a % | Mean Injury (%) ([13]; 280 g ae/ha, 2 DAA): 1.3 ab % | Mean Injury (%) ([13]; 280 g ae/ha, 19 DAA): 0.0 a % | Mean Injury (%) ([13]; 280 g ae/ha, 45 DAA): 0.0 a % | Mean Injury (%) ([13]; 560 g ae/ha, 0 DAA): 2.7 a % | Mean Injury (%) ([13]; 560 g ae/ha, 1 DAA): 0.0 a % | Mean Injury (%) ([13]; 560 g ae/ha, 2 DAA): 0.7 a % | Mean Injury (%) ([13]; 560 g ae/ha, 19 DAA): 0.7 a % | Mean Injury (%) ([13]; 560 g ae/ha, 45 DAA): 0.0 a % | Mean Injury (%) ([13]; 1120 g ae/ha, 0 DAA): 5.0 ab % | Mean Injury (%) ([13]; 1120 g ae/ha, 1 DAA): 0.7 a % | Mean Injury (%) ([13]; 1120 g ae/ha, 2 DAA): 1.3 ab % | Mean Injury (%) ([13]; 1120 g ae/ha, 19 DAA): 0.0 a % | Mean Injury (%) ([13]; 1120 g ae/ha, 45 DAA): 1.7 a % | Mean Injury (%) ([13]; 2240 g ae/ha, 0 DAA): 9.3 b % | Mean Injury (%) ([13]; 2240 g ae/ha, 1 DAA): 2.0 a % | Mean Injury (%) ([13]; 2240 g ae/ha, 2 DAA): 3.3 abc % | Mean Injury (%) ([13]; 2240 g ae/ha, 19 DAA): 0.7 a % | Mean Injury (%) ([13]; 2240 g ae/ha, 45 DAA): 0.0 a % | Mean Injury (%) ([14]; 1120 g ae/ha, 0 DAA): 0.0 a % | Mean Injury (%) ([14]; 1120 g ae/ha, 1 DAA): 1.8 ab % | Mean Injury (%) ([14]; 1120 g ae/ha, 2 DAA): 0.0 a % | Mean Injury (%) ([14]; 1120 g ae/ha, 4 DAA): 1.0 b % | Mean Injury (%) ([14]; 1120 g ae/ha, 12 DAA): 1.0 a % | Mean Injury (%) ([14]; 2240 g ae/ha, 0 DAA): 0.0 a % | Mean Injury (%) ([14]; 2240 g ae/ha, 1 DAA): 0.0 b % | Mean Injury (%) ([14]; 2240 g ae/ha, 2 DAA): 0.0 a % | Mean Injury (%) ([14]; 2240 g ae/ha, 4 DAA): 0.5 b % | Mean Injury (%) ([14]; 2240 g ae/ha, 12 DAA): 3.3 a % | Percentage Control of Target Weeds [15]: 77% | Mean Injury 1 DAA, Injury (%) ([16]; 560 g ae/ha post-emergence): 2.3% | Mean Injury 1 DAA, Injury (%) ([16]; 840 g ae/ha post-emergence): 4.1% | Mean Injury 1 DAA, Injury (%) ([16]; 1120 g ae/ha post-emergence): 2.8% | Mean Injury 1 DAA, Injury (%) ([16]; 1680 g ae/ha post-emergence): 4.5% | Mean Injury 1 DAA, Injury (%) ([16]; 2240 g ae/ha post-emergence): 6.3%

O=C(O)COc1ccc(Cl)cc1Cl [2,4-D]
Percentage Control of Target Weeds [1]: 89% | Percentage Control of Target Weeds [2]: 90% | Percentage Control of Target Weeds [3]: 93% | Percentage Control of Target Weeds [4]: 99% | Percentage Control of Target Weeds [5]: 88% | Percentage Control of Target Weeds [6]: 93% | Percentage Control of Target Weeds [7]: 100% | Percentage Control of Target Weeds [8]: 97% | Percentage Control of Target Weeds [9]: 98% | Percentage Control of Target Weeds [10]: 99% | Percentage Control of Target Weeds [11]: 99% | Percentage Control of Target Weeds [12]: 89% | Mean Injury (%) ([13]; 560 g ae/ha, 0 DAA): 6.7 ab % | Mean Injury (%) ([13]; 560 g ae/ha, 1 DAA): 6.7 b % | Mean Injury (%) ([13]; 560 g ae/ha, 2 DAA): 4.0 bc % | Mean Injury (%) ([13]; 560 g ae/ha, 19 DAA): 1.7 a % | Mean Injury (%) ([13]; 560 g ae/ha, 45 DAA): 3.3 a % | Mean Injury (%) ([13]; 1120 g ae/ha, 0 DAA): 23.3 c % | Mean Injury (%) ([13]; 1120 g ae/ha, 1 DAA): 14.0 c % | Mean Injury (%) ([13]; 1120 g ae/ha, 2 DAA): 4.7 c % | Mean Injury (%) ([13]; 1120 g ae/ha, 19 DAA): 5.0 b % | Mean Injury (%) ([13]; 1120 g ae/ha, 45 DAA): 2.3 a % | Mean Injury (%) ([14]; 1120 g ae/ha, 0 DAA): 0.5 a % | Mean Injury (%) ([14]; 1120 g ae/ha, 1 DAA): 2.3 ab % | Mean Injury (%) ([14]; 1120 g ae/ha, 2 DAA): 3.0 a % | Mean Injury (%) ([14]; 1120 g ae/ha, 4 DAA): 3.0 b % | Mean Injury (%) ([14]; 1120 g ae/ha, 12 DAA): 3.0 a % | Mean Injury (%) ([14]; 2240 g ae/ha, 0 DAA): 1.3 a % | Mean Injury (%) ([14]; 2240 g ae/ha, 1 DAA): 4.3 a % | Mean Injury (%) ([14]; 2240 g ae/ha, 2 DAA): 3.8 a % | Mean Injury (%) ([14]; 2240 g ae/ha, 4 DAA): 6.8 a % | Mean Injury (%) ([14]; 2240 g ae/ha, 12 DAA): 3.0 a % | Percentage Control of Target Weeds [15]: 92% | Mean Injury 1 DAA, Injury (%) ([16]; 840 g ae/ha post-emergence): 7.4% | Mean Injury 1 DAA, Injury (%) ([16]; 1120 g ae/ha post-emergence): 13.0%
